Measurements as given in the supplement of paper PMC11208160.

Experiment: recombinant barcode read abundance after kanamycin selection (control-corrected) (log10(CPM+1)); higher = more efficient recombination; sequences stand for … in AGTGCAGAGAAAATCGGCCAGTTTTCTCTGCCTGCAGTCCGCATGCCGT…AGATTTATGCAGCGGACTGCCTTTCTCCCAAAGTGATAAACCGGACAGTATCATGGACCGGTTTTCCCGGTAATCCGTATTTGCAAGGTTGGTTTCACT; site = the 11-nt target
Summary of the method: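 A promoter, a target, a barcode and the first 104 bridge RNA bases under J23119 made up each oligo. Oligos were Gibson-cloned into a vector bearing the other 73 bp and a T7-inducible recombinase, then co-electroporated into E. coli with a donor plasmid and plated in duplicate on chloramphenicol/ampicillin LB agar (control) or chloramphenicol/ampicillin/kanamycin with 0.1 mM IPTG. Recombination efficiency is the averaged, control-corrected counts per million of recombinant-junction barcodes. Reported values are log10(CPM+1).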
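Also: IS621 recombinase and bridge RNA in Escherichia coli cells.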

First: ATCGTTGCTTGGGTTCTAACCTGTTGCCT (site ATCGTTGCTAG)
Second: ATCGTTGCTTGGGTTCTAACCTGTTGCCT (site CTCGTTGCTAG)
The “recombinant barcode read abundance (log10)” value of the first is higher: 0.657 for the first, 0.0176 for the second.

“ATCGTTGCTTGGGTTCTAACCTGTTGCCT (site GTCGTTGCTAG)” and “ATCGTTGCTTGGGTTCTAACCTGTTGCCT (site TTCGTTGCTAG)” are within 0.2 log units of each other in “recombinant barcode read abundance (log10)” value: 0.0617 for the first, 0.0404 for the second.

“ATCTAGGCTTGGGTTCTAACCTGTTGCCG (site ATCTAGGCTCG)” and “ATCTAGGCTTGGGTTCTAACCTGTTGCCG (site CATAGATCTAT)” are within 0.2 log units of each other in “recombinant barcode read abundance (log10)” value: 0.0337 for the first, 0.099 for the second.

First: ATCTGGGCTTGGGTTCTAACCTGTTGCCT (site AACTGGGCTAG)
Second: ATCTGGGCTTGGGTTCTAACCTGTTGCCT (site ACCTGGGCTAG)
The “recombinant barcode read abundance (log10)” value of the first is higher: 0.339 for the first, 0.0625 for the second.

“ATCTGGGCTTGGGTTCTAACCTGTTGCCT (site AGCTGGGCTAG)” and “ATCTGGGCTTGGGTTCTAACCTGTTGCCT (site ATCTGGGCTAG)” are within 0.2 log units of each other in “recombinant barcode read abundance (log10)” value: 0.123 for the first, 0.0992 for the second.

Going from “ATCTTAACTTGGGTTCTAACCTGTTGCCT (site ATCTTAACTAG)” to “ATCTTAACTTGGGTTCTAACCTGTTGCCT (site ATCTTACCTAG)”, the “recombinant barcode read abundance (log10)” value rises from 0.183 to 0.643.

Compared with “ATCTTAACTTGGGTTCTAACCTGTTGCCT (site ATCTTAGCTAG)”, “ATCTTAACTTGGGTTCTAACCTGTTGCCT (site ATCTTATCTAG)” is lower in “recombinant barcode read abundance (log10)” value: 0.337 for the first, 0.00981 for the second.

First: ATCTTGTCTTGGGTTCTAACCTGTTGCCT (site ATCTTGTCTAG)
Second: ATCTTGTCTTGGGTTCTAACCTGTTGCCT (site ATCTTGTCTCG)
The “recombinant barcode read abundance (log10)” value of the first is higher: 0.977 for the first, 0.0162 for the second.

Compared with “ATGAAGACTTGGGTTCTAACCTGTTGCCT (site ATAAAGACTAG)”, “ATGAAGACTTGGGTTCTAACCTGTTGCCT (site ATCAAGACTAG)” is lower in “recombinant barcode read abundance (log10)” value: 2.09 for the first, 1.07 for the second.

Compared with “ATGAAGACTTGGGTTCTAACCTGTTGCCT (site ATGAAGACTAG)”, “ATGAAGACTTGGGTTCTAACCTGTTGCCT (site ATTAAGACTAG)” is lower in “recombinant barcode read abundance (log10)” value: 2.13 for the first, 1.12 for the second.

Compared with “ATGACCGCTTGGGTTCTAACCTGTTGCCA (site AGGACCACTTG)”, “ATGACCGCTTGGGTTCTAACCTGTTGCCA (site ATGACCGCTTG)” is higher in “recombinant barcode read abundance (log10)” value: 0.246 for the first, 1.28 for the second.

First: ATGACTACTTGGGTTCTAACCTGTTGCTA (site ATGACTACTGA)
Second: ATGACTACTTGGGTTCTAACCTGTTGCTA (site ATGACTACTTA)
The “recombinant barcode read abundance (log10)” value of the first is lower: 0.136 for the first, 0.456 for the second.

Compared with “ATGAGAACTTGGGTTCTAACCTGTTGCCT (site ATGAGAACTAG)”, “ATGAGAACTTGGGTTCTAACCTGTTGCCT (site ATGAGAACTCG)” is lower in “recombinant barcode read abundance (log10)” value: 1.5 for the first, 0.361 for the second.

“ATGATTCCTTGGGTTCTAACCTGTTGCCT (site AAGATTCCTAG)” and “ATGATTCCTTGGGTTCTAACCTGTTGCCT (site ACGATTCCTAG)” are within 0.2 log units of each other in “recombinant barcode read abundance (log10)” value: 0 for the first, 0.0545 for the second.

First: ATGATTCCTTGGGTTCTAACCTGTTGCCT (site AGGATTCCTAG)
Second: ATGATTCCTTGGGTTCTAACCTGTTGCCT (site ATGATTCCTAG)
The “recombinant barcode read abundance (log10)” value of the first is lower: 0.0244 for the first, 0.62 for the second.

Going from “ATGATTGCTTGGGTTCTAACCTGTTGCCT (site ATGAATGCTAG)” to “ATGATTGCTTGGGTTCTAACCTGTTGCCT (site ATGATTGCTAG)”, the “recombinant barcode read abundance (log10)” value rises from 0.149 to 1.18.

First: ATGCCCACTTGGGTTCTAACCTGTTGCCT (site ATGCCAACTAG)
Second: ATGCCCACTTGGGTTCTAACCTGTTGCCT (site ATGCCCACTAG)
The “recombinant barcode read abundance (log10)” value of the first is lower: 0.0683 for the first, 1.33 for the second.

“ATGCCCACTTGGGTTCTAACCTGTTGCCT (site ATGCCGACTAG)” and “ATGCCCACTTGGGTTCTAACCTGTTGCCT (site ATGCCTACTAG)” are within 0.2 log units of each other in “recombinant barcode read abundance (log10)” value: 0.049 for the first, 0.106 for the second.

First: ATGCGAGCTTGGGTTCTAACCTGTTGCAG (site ATGCGAGCTCA)
Second: ATGCGAGCTTGGGTTCTAACCTGTTGCAG (site ATGCGAGCTCC)
The “recombinant barcode read abundance (log10)” value of the first is higher: 0.791 for the first, 0.0805 for the second.

Compared with “ATGCGAGCTTGGGTTCTAACCTGTTGCAG (site ATGCGAGCTCG)”, “ATGCGAGCTTGGGTTCTAACCTGTTGCAG (site ATGCGAGCTCT)” is higher in “recombinant barcode read abundance (log10)” value: 0.549 for the first, 1.87 for the second.

Compared with “ATGGACCCTTGGGTTCTAACCTGTTGCTC (site ATGGACCCTGA)”, “ATGGACCCTTGGGTTCTAACCTGTTGCTC (site TATCGGGCTCT)” is lower in “recombinant barcode read abundance (log10)” value: 1.93 for the first, 0.0488 for the second.

Compared with “ATGGATACTTGGGTTCTAACCTGTTGCGT (site AGGGATACTAC)”, “ATGGATACTTGGGTTCTAACCTGTTGCGT (site ATGGATACTAC)” is higher in “recombinant barcode read abundance (log10)” value: 0.219 for the first, 2.51 for the second.

Going from “ATGGCGGCTTGGGTTCTAACCTGTTGCCT (site ATGGCGGCTAG)” to “ATGGCGGCTTGGGTTCTAACCTGTTGCCT (site GTGGAGGCTAG)”, the “recombinant barcode read abundance (log10)” value falls from 1.69 to 0.0374.

First: ATGGGCACTTGGGTTCTAACCTGTTGCCT (site ATAGGAACTAG)
Second: ATGGGCACTTGGGTTCTAACCTGTTGCCT (site ATGGGCACTAG)
The “recombinant barcode read abundance (log10)” value of the first is lower: 0.198 for the first, 0.639 for the second.

First: ATGGGCCCTTGGGTTCTAACCTGTTGCTC (site ATGGGCCCTAA)
Second: ATGGGCCCTTGGGTTCTAACCTGTTGCTC (site ATGGGCCCTCA)
The “recombinant barcode read abundance (log10)” value of the first is higher: 1.36 for the first, 1.04 for the second.

Going from “ATGGGCCCTTGGGTTCTAACCTGTTGCTC (site ATGGGCCCTGA)” to “ATGGGCCCTTGGGTTCTAACCTGTTGCTC (site ATGGGCCCTTA)”, the “recombinant barcode read abundance (log10)” value falls from 2.09 to 0.0312.

Compared with “ATGGGTCCTTGGGTTCTAACCTGTTGCCT (site ATAGGTCCTAG)”, “ATGGGTCCTTGGGTTCTAACCTGTTGCCT (site ATCGGTCCTAG)” is lower in “recombinant barcode read abundance (log10)” value: 2.07 for the first, 0.0834 for the second.

First: ATGGGTCCTTGGGTTCTAACCTGTTGCCT (site ATGGGTCCTAG)
Second: ATGGGTCCTTGGGTTCTAACCTGTTGCCT (site ATTGGTCCTAG)
The “recombinant barcode read abundance (log10)” value of the first is higher: 2.55 for the first, 0.356 for the second.

“ATGGTCCCTTGGGTTCTAACCTGTTGCCT (site ATAGTCCCTAG)” and “ATGGTCCCTTGGGTTCTAACCTGTTGCCT (site ATGGTCCCTAG)” are within 0.2 log units of each other in “recombinant barcode read abundance (log10)” value: 3.2 for the first, 3.16 for the second.

Compared with “ATGGTGGCTTGGGTTCTAACCTGTTGCCT (site ATGGTGACTAG)”, “ATGGTGGCTTGGGTTCTAACCTGTTGCCT (site ATGGTGCCTAG)” is lower in “recombinant barcode read abundance (log10)” value: 1.17 for the first, 0.288 for the second.

Compared with “ATGGTGGCTTGGGTTCTAACCTGTTGCCT (site ATGGTGGCTAG)”, “ATGGTGGCTTGGGTTCTAACCTGTTGCCT (site ATGGTGTCTAG)” is lower in “recombinant barcode read abundance (log10)” value: 1.81 for the first, 0.241 for the second.

“ATGTCTACTTGGGTTCTAACCTGTTGCCA (site ATAACTACTTG)” and “ATGTCTACTTGGGTTCTAACCTGTTGCCA (site ATGTCTACTTG)” are within 0.2 log units of each other in “recombinant barcode read abundance (log10)” value: 0.0597 for the first, 0.0628 for the second.

“ATTACCTCTTGGGTTCTAACCTGTTGCCT (site AATACCTCTAG)” and “ATTACCTCTTGGGTTCTAACCTGTTGCCT (site ACTACCTCTAG)” are within 0.2 log units of each other in “recombinant barcode read abundance (log10)” value: 0.0245 for the first, 0.0829 for the second.

First: ATTACCTCTTGGGTTCTAACCTGTTGCCT (site AGTACCTCTAG)
Second: ATTACCTCTTGGGTTCTAACCTGTTGCCT (site ATTACCTCTAG)
The “recombinant barcode read abundance (log10)” value of the first is lower: 0.0695 for the first, 1.1 for the second.

“ATTACTTCTTGGGTTCTAACCTGTTGCTT (site ATTACTTCTAA)” and “ATTACTTCTTGGGTTCTAACCTGTTGCTT (site GAGTTCCCTGG)” are within 0.2 log units of each other in “recombinant barcode read abundance (log10)” value: 0.282 for the first, 0.406 for the second.

Compared with “ATTAGGACTTGGGTTCTAACCTGTTGCAG (site ATTAGGACTCA)”, “ATTAGGACTTGGGTTCTAACCTGTTGCAG (site ATTAGGACTCT)” is higher in “recombinant barcode read abundance (log10)” value: 0.579 for the first, 2.1 for the second.

Compared with “ATTAGGACTTGGGTTCTAACCTGTTGCGA (site AATAGGACTGC)”, “ATTAGGACTTGGGTTCTAACCTGTTGCGA (site ATTAGGACTTC)” is higher in “recombinant barcode read abundance (log10)” value: 0.03 for the first, 2.3 for the second.

First: ATTAGTGCTTGGGTTCTAACCTGTTGCCT (site AATAGTGCTAG)
Second: ATTAGTGCTTGGGTTCTAACCTGTTGCCT (site ACTAGTGCTAG)
The “recombinant barcode read abundance (log10)” value of the first is higher: 0.605 for the first, 0 for the second.

In the case of “ATTAGTGCTTGGGTTCTAACCTGTTGCCT (site AGTAGTGCTAG)”, the “recombinant barcode read abundance (log10)” value was 0.118.
